Where two headings read alike, the source gives them in different places.
What was measured:
[1] = Trotabresib plasma pharmacokinetics, CC-90010-GBM-002; type: in vivo, human; details: for Cmax: read-out: Cmax, GM (GCV%)
Description: The sample size was not based on strict statistical power calculations. Safety, efficacy, and pharmacodynamic analyses were summarized using descriptive statistics. Plasma pharmacokinetic parameters were calculated by the noncompartmental analysis method from plasma concentration–time profiles.

CCR1 mRNA = test: Blood CCR1 mRNA pharmacodynamics; type: in vivo, human
Description: (§1) Plasma samples were collected during the first treatment cycle for investigation of trotabresib pharmacokinetics and pharmacodynamics. Plasma pharmacokinetic parameters assessed included peak plasma concentration (Cmax), time to peak plasma concentration (tmax), area under the plasma concentration–time curve (AUC), and terminal half-life (t½). Pharmacodynamic markers assessed included blood levels of CCR1 and HEXIM1 mRNA, which are established markers of BET inhibitor target engagement.[17],[22],[37],[38]

HEXIM1 mRNA = test: Blood HEXIM1 mRNA pharmacodynamics; type: in vivo, human
Description: as §1

MGMT = test: In vivo downregulation of MGMT; details: preclinical; Supplementary Figure S2
Description: Supplementary Figure 2. In vivo downregulation of MGMT (A) mRNA by trotabresib as a single agent and (B) protein by trotabresib in combination with TMZ.

[2] = parameters: method as in PMID 36455228; details: recurrent high-grade glioma, trotabresib 30 mg/day on days 1–4 before surgery; cited from earlier work
MYC = details: in vitro; ref Bristol Myers Squibb; data on file; cited from earlier work

In the case of `Cn1cc(-c2cc(S(C)(=O)=O)ccc2OCC2CC2)c2ccccc2c1=O` [Trotabresib], the “Reduction in plasma trotabresib concentration” value ([1]; 168 hours post-dose) is reported as greater than 75%, the “mean t½” value ([1]; all cohorts, standard deviation ± 27.2) is reported as ~ 74 h and the “Increase in exposure with dose” value ([1]; both treatment settings, 15-45 mg) is reported as “proportional to dose”. It also gave a Cmax ([1]; human, plasma, oral, adjuvant trotabresib 15 mg + TMZ, Day 1) of 201 ng/mL, a Tmax ([1]; human, plasma, oral, adjuvant trotabresib 15 mg + TMZ, Day 1, read-out: tmax, median (range)) of 1 h and a Cmax ([1]; human, plasma, oral, adjuvant trotabresib 15 mg + TMZ, Day 4) of 433 ng/mL. The Tmax ([1]; human, plasma, oral, adjuvant trotabresib 15 mg + TMZ, Day 4, read-out: tmax, median (range)) was 1.5 h, the Cmax ([1]; human, plasma, oral, adjuvant trotabresib 30 mg + TMZ, Day 1) was 306 ng/mL and the Tmax ([1]; human, plasma, oral, adjuvant trotabresib 30 mg + TMZ, Day 1, read-out: tmax, median (range)) was 2 h. The Cmax ([1]; human, plasma, oral, adjuvant trotabresib 30 mg + TMZ, Day 4) was 822 ng/mL, the Tmax ([1]; human, plasma, oral, adjuvant trotabresib 30 mg + TMZ, Day 4, read-out: tmax, median (range)) was 1.5 h and the Cmax ([1]; human, plasma, oral, adjuvant trotabresib 45 mg + TMZ, Day 1) was 522 ng/mL. For the same molecule, the Tmax ([1]; human, plasma, oral, adjuvant trotabresib 45 mg + TMZ, Day 1, read-out: tmax, median (range)) was 2 h, the Cmax ([1]; human, plasma, oral, adjuvant trotabresib 45 mg + TMZ, Day 4) was 1160 ng/mL and the Tmax ([1]; human, plasma, oral, adjuvant trotabresib 45 mg + TMZ, Day 4, read-out: tmax, median (range)) was 1.5 h. The half-life ([1]; human, plasma, oral, all cohorts, standard deviation ± 27.2, read-out: mean t½ (converted)) was 74.2 h, the Cmax ([1]; human, plasma, oral, concomitant trotabresib 15 mg + TMZ + RT, Day 1) was 167 ng/mL and the Tmax ([1]; human, plasma, oral, concomitant trotabresib 15 mg + TMZ + RT, Day 1, read-out: tmax, median (range)) was 2 h. It also gave a Cmax ([1]; human, plasma, oral, concomitant trotabresib 15 mg + TMZ + RT, Day 4) of 383 ng/mL, a Tmax ([1]; human, plasma, oral, concomitant trotabresib 15 mg + TMZ + RT, Day 4, read-out: tmax, median (range)) of 1.3 h and a Cmax ([1]; human, plasma, oral, concomitant trotabresib 30 mg + TMZ + RT, Day 1) of 309 ng/mL. The Tmax ([1]; human, plasma, oral, concomitant trotabresib 30 mg + TMZ + RT, Day 1, read-out: tmax, median (range)) was 2 h, the Cmax ([1]; human, plasma, oral, concomitant trotabresib 30 mg + TMZ + RT, Day 4) was 874 ng/mL and the Tmax ([1]; human, plasma, oral, concomitant trotabresib 30 mg + TMZ + RT, Day 4, read-out: tmax, median (range)) was 1.5 h. The Tmax ([1]; human, plasma, oral, day 4, all cohorts, read-out: tmax) was 0.5 to 4 h, the “Blood CCR1 mRNA expression, lower than at baseline” value (CCR1 mRNA; RP2D 30 mg, day 4, 2–4 h post-dose, adjuvant and concomitant settings) was no less than 50% and the “Time to return of CCR1 mRNA expression to baseline levels” value (CCR1 mRNA; RP2D 30 mg, post-dose in cycle 1) was no more than 168 h. For the same molecule, the “Blood CCR1 mRNA modulation” value (CCR1 mRNA; trotabresib 15 mg, adjuvant or concomitant cohorts) was “no decrease in CCR1 expression”, the “Duration of HEXIM1 mRNA elevation” value (HEXIM1 mRNA; RP2D 30 mg, cycle 1) was “remained above baseline until 168 h post-dose” and the “Increase in blood HEXIM1 mRNA expression” value (HEXIM1 mRNA; RP2D 30 mg, days 3 and 4, adjuvant and concomitant cohorts) was 2.5- to 4.0 fold. The “HEXIM1 modulation vs dose” value (HEXIM1 mRNA; both cohorts) was “increased with trotabresib dose”, the MGMT expression (MGMT) was “downregulates MGMT expression in a dose-dependent manner” and the “Brain tumor tissue:plasma ratio” value [2] was 0.84. The MYC expression (MYC) was “downregulated in vitro”.

From PMC9653173, “Trotabresib (CC-90010) in combination with adjuvant temozolomide or concomitant temozolomide plus radiotherapy in patients with newly diagnosed glioblastoma” (Neuro-Oncology Advances, 2022)
